Laboratory results taken from patent US20160297830A1, “NOVEL COMPOUNDS USEFUL FOR THE TREATMENT OF BACTERIAL INFECTIOUS DISEASES” (GALAPAGOS NV, priority 2013, published 2016).
pIC50: −log10 of the molar value. Converted amounts (≈) assume the structure as drawn. Read-outs that look alike come from different tables or passages of the source.

How the values were obtained:
[1] = system: H. influenza Hi3 ATCC 31517; assay: organism not typed; type: cell-based; conditions: read-out: MIC Hi3
[2] = system: E. coli Ec1 ATCC 25922; assay: Antibacterial activity assay (MIC), E. coli Ec1; type: cell-based; conditions: Escherichia coli
[3] = system: S. aureus Sa1 ATCC 13709; assay: microbe, parasite or virus in culture; type: cell-based; conditions: Staphylococcus aureus
[4] = system: H. influenza Hi10 clinical strain; assay: organism not typed; type: cell-based; conditions: read-out: MIC Hi10
[5] = system: S. aureus Sa26 ATCC 25923; assay: Antibacterial activity assay (MIC), S. aureus Sa26; type: cell-based; conditions: Staphylococcus aureus
[6] = system: H. influenza Hi47 clinical strain, Ampicillin Resistant; assay: organism not typed; type: cell-based; conditions: read-out: MIC Hi47
[7] = system: E. coli Ec50 efflux pump KO; assay: microbe, parasite or virus in culture; type: cell-based; conditions: Escherichia coli, read-out: MIC Ec50 efflux pump KO
[8] = biological target: DNA Polymerase IIIα (DnaE) from Staphylococcus aureus (Staphylococcus aureus, UniProt Q6GG04); assay: biochemical
[9] = system: H. influenza Hi106 ATCC 51907; assay: organism not typed; type: cell-based; conditions: read-out: MIC Hi106
[10] = system: E. coli Ec113 efflux pump KO; assay: microbe, parasite or virus in culture; type: cell-based; conditions: Escherichia coli, read-out: MIC Ec113 efflux pump KO
[11] = system: S. aureus Sa2 clinical strain NCIMB 41953, MRSA; assay: microbe, parasite or virus in culture; type: cell-based; conditions: Staphylococcus aureus, read-out: MIC Sa2
[12] = biological target: DNA III Polymerase E (Escherichia coli, UniProt P10443); assay: In vitro activity against DNA III Polymerase E, E. coli; type: biochemical
Procedure: A radioactive filterplate assay was used to assess inhibitory activity of compounds on DNA Polymerase IIIα. Five μL of a dilution series of compound, starting from 100 μM highest concentration, 1/5 dilution, was added to the wells of a 96 well plate. Recombinant enzyme was diluted to 0.47 μg/mL in a buffer containing 20 mM Tris pH7.5, 8 mM DTT, 10 mM MgOAc, 0.05% CHAPS and 10 μL thereof was added to the compound dilutions. The reaction was started with the addition of 10 μL substrate in the same buffer, containing activated calf thymus DNA (Sigma, D4522), dATP, dGTP, dCTP, dTTP (Invitrogen) and [α-33P]-dTTP (Perkin Elmer, NEG605H001) at a concentration of 62.5 μg/mL, 50 nM and 7.5 μCi/mL respectively. The mixture was incubated at 30° C. for 120 minutes and terminated by addition of phosphoric acid. Samples were transferred to filter plates and incorporated radioactivity was measured by the Topcount. Data were converted to percent inhibition with respect to positive and negative controls. IC50 values were calculated using Graph Prism™ software.

[13] = system: S. aureus Sa4 NCTC 6571; assay: Antibacterial activity assay (MIC), S. aureus Sa4; type: cell-based; conditions: Staphylococcus aureus
[14] = ATCC25922, E. coli Ec1 ATCC 25922, sensitive strain, read-out: MIC Ec1
[15] = ATCC13709, S. aureus Sa1 ATCC 13709, sensitive strain, Mueller-Hinton Broth, 37° C., read-out: MIC Sa1
[16] = ATCC25923, read-out: MIC Sa26 + 10% SH, S. aureus Sa26 + 10% SH
[17] = ATCC25923, read-out: MIC Sa26 + 50% SH, S. aureus Sa26 + 50% SH
[18] = ATCC25923, S. aureus Sa26 ATCC 25923, sensitive strain, Mueller-Hinton Broth, 37° C., read-out: MIC Sa26
[19] = NCTC6571, S. aureus Sa4 NCTC 6571, sensitive strain, read-out: MIC Sa4
[20] = DNA polymerase III, E. coli, read-out: IC50 semiquantitative scoring, E. coli
[21] = DNA polymerase III, S. aureus, read-out: IC50 semiquantitative scoring, S. aureus
[22] = ATCC25923, read-out: MIC Sa26 + 10% SH
[23] = ATCC25923, read-out: MIC Sa26 + 50% SH

DNA Polymerase IIIα (DnaE) from Staphylococcus aureus, sequence (Q6GG04 1-1022): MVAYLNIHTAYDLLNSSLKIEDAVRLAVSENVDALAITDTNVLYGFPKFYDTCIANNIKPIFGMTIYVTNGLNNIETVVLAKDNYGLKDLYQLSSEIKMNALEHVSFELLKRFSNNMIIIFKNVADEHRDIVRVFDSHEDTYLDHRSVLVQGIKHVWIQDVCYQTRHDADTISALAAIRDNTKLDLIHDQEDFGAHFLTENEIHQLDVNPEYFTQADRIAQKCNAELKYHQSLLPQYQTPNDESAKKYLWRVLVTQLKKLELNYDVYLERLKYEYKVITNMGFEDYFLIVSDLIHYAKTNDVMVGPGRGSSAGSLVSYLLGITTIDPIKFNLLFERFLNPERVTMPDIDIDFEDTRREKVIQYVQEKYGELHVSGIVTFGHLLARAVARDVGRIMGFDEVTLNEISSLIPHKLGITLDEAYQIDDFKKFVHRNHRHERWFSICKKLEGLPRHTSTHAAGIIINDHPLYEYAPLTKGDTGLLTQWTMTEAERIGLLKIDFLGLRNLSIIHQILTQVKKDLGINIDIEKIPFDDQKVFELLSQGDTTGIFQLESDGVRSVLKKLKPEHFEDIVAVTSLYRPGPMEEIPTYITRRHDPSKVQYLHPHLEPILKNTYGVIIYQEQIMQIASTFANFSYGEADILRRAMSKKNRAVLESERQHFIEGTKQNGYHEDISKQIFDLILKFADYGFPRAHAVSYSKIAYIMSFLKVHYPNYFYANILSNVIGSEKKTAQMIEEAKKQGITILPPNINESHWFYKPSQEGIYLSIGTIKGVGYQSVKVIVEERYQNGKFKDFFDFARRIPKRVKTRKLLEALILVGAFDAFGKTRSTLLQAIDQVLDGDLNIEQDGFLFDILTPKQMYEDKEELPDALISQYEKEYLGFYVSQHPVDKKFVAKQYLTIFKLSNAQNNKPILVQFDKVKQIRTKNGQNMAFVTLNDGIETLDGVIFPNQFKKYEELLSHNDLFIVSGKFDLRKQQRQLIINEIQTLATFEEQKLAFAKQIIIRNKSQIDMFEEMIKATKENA
DNA III Polymerase E, sequence (P10443 whole entry): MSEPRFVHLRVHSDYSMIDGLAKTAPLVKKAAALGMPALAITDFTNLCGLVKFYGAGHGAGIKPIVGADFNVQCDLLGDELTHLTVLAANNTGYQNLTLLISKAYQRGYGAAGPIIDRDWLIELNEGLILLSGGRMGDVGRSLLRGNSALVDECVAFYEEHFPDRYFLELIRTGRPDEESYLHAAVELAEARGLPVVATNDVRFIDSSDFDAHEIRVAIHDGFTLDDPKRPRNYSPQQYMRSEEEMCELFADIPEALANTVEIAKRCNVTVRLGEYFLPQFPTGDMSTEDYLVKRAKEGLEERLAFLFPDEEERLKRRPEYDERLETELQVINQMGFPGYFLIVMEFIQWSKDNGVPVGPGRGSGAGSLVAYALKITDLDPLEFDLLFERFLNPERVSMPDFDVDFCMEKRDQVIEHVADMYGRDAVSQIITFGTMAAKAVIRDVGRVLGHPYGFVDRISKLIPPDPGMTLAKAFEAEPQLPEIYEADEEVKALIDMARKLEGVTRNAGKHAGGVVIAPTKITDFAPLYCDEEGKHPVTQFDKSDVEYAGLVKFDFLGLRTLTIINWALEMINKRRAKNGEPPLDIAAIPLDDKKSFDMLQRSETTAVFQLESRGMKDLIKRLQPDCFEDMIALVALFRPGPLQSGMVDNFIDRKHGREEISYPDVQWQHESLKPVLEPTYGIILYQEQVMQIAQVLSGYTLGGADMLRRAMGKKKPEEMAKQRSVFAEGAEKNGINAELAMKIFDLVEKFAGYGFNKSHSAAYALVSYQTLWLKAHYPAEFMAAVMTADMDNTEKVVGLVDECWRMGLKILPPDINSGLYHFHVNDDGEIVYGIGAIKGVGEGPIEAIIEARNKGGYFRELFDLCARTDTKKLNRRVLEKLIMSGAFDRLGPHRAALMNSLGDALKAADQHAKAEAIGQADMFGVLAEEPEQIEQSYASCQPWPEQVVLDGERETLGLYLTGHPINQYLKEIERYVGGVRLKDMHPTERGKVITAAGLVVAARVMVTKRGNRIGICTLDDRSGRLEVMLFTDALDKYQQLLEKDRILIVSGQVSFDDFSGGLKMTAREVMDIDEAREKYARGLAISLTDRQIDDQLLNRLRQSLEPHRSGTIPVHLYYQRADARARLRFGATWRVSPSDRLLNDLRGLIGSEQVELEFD

| Structure (SMILES) | MIC [1] [µg/mL] | MIC [2, 14] [µg/mL] | MIC [3, 15] [µg/mL] | MIC [4] [µg/mL] | MIC [5, 16] [µg/mL] | MIC [5, 17] [µg/mL] | MIC [5, 18] [µg/mL] | MIC [6] [µg/mL] | MIC [7] [µg/mL] | pIC50 [8] | MIC [9] [µg/mL] | MIC [10] [µg/mL] | MIC [11] [µg/mL] | pIC50 [12] | MIC [13, 19] [µg/mL] | pIC50 [12, 20] | pIC50 [8, 21] | other results |
| --- | --- | --- | --- | --- | --- | --- | --- | --- | --- | --- | --- | --- | --- | --- | --- | --- | --- | --- |
| COC[C@@H](O)[C@H]1OC(=O)[C@H](COC)[C@H]2C=C[C@H]3[C@H]4O[C@]2(/C(C)=C/[C@H]1C)[C@@H]3[C@H](O)[C@@H](C)[C@H]4O [Compound 1, Baleomycin] | > 64 | > 64 | > 64 | > 64 | > 64 | > 64 | > 64 | 64 (≈ 141 µM) | 2 (≈ 4.42 µM) | 4.66 to 5.66 | 64 (≈ 141 µM) | 0.5 (≈ 1.1 µM) | > 64 | 4.66 to 5.66 | > 64 | – | – | – |
| COC[C@@H](O)[C@H]1OC(=O)[C@H](COC)[C@H]2C=C[C@H]3[C@H]4O[C@]2(/C(C)=C/[C@H]1C)[C@@H]3[C@H](O)[C@@H](C)[C@H]4OC(=O)c1ccc[nH]1 [Compound 3, 8-O-1H-pyrrole-2′-carbonylbaleomycin] | > 64 | > 64 | 0.5 (≈ 0.916 µM) | 64 (≈ 117 µM) | 1 | 2 | 1 (≈ 1.83 µM) | > 64 | 8 (≈ 14.7 µM) | 5.74 to 8.74 | 64 (≈ 117 µM) | 0.125 (≈ 0.229 µM) | 0.5 (≈ 0.916 µM) | – | 0.5 (≈ 0.916 µM) | 4.74 to 5.74 | – | – |
| COCC[C@H]1OC(=O)[C@H](COC)[C@H]2C=C[C@H]3[C@H]4O[C@]2(/C(C)=C/[C@H]1C)[C@@H]3[C@H](O)[C@@H](COC)[C@H]4OC(=O)c1ccc[nH]1 [Compound 4, 17-Deoxy-8-O-1H-pyrrole-2′-carbonylbranimycin] | > 64 | > 64 | 4 (≈ 7.15 µM) | > 64 | 4 | 8 | 4 (≈ 7.15 µM) | – | > 64 | 5.75 to 8.75 | – | 4 (≈ 7.15 µM) | 4 (≈ 7.15 µM) | < 4.75 | 2 (≈ 3.57 µM) | – | – | – |
| COC[C@@H]1[C@@H](O)[C@@H]2[C@H]3C=C[C@@H]4[C@@H](COC)C(=O)O[C@H]([C@H](O)COC)[C@H](C)/C=C(\C)[C@@]24O[C@H]3[C@@H]1OC(=O)c1ccoc1 [Compound 5, 8-O-Furane-3′-carbonylbranimycin] | > 64 | > 64 | 2 (≈ 3.47 µM) | > 64 | 2 | 4 | 4 (≈ 6.94 µM) | > 64 | > 64 | – | > 64 | – | 2 (≈ 3.47 µM) | – | 2 (≈ 3.47 µM) | < 4.76 | 5.76 to 8.76 | – |
| COC[C@@H]1[C@@H](O)[C@@H]2[C@H]3C=C[C@@H]4[C@@H](COC)C(=O)O[C@H]([C@H](O)COC)[C@H](C)/C=C(\C)[C@@]24O[C@H]3[C@@H]1OC(=O)c1ccc(C)[nH]1 [Compound 6, 8-O-5-Methyl-1H-pyrrole-2′-carbonylbranimycin] | > 64 | – | – | > 64 | – | – | – | > 64 | – | 5.77 to 8.77 | > 64 | 8 (≈ 13.6 µM) | 64 (≈ 109 µM) | – | – | < 4.77 | – | MIC ([2]; ATCC25922, read-out: MIC Ec1): > 64 µg/mL; MIC ([3]; ATCC13709, read-out: MIC Sa1): > 64 µg/mL; MIC ([5]; ATCC25923, read-out: MIC Sa26): > 64 µg/mL; MIC [5, 22]: > 64 µg/mL; MIC [5, 23]: > 64 µg/mL; MIC ([13]; NCTC6571, read-out: MIC Sa4): > 64 µg/mL |
| COC[C@@H](O)[C@H]1OC(=O)[C@H](COC)[C@H]2C=C[C@H]3[C@H]4O[C@]2(/C(C)=C/[C@H]1C)[C@@H]3[C@H](O)[C@@H](C)[C@H]4OC(=O)c1ccoc1 [Compound 7, 8-O-Furane-3′-carbonylbaleomycin] | > 64 | > 64 | 8 (≈ 14.6 µM) | 64 (≈ 117 µM) | 16 | 16 | 16 (≈ 29.3 µM) | 64 (≈ 117 µM) | > 64 | 5.74 to 8.74 | 64 (≈ 117 µM) | 0.125 (≈ 0.229 µM) | 8 (≈ 14.6 µM) | 5.74 to 8.74 | 8 (≈ 14.6 µM) | – | – | – |
| COC[C@@H]1[C@@H](O)[C@@H]2[C@H]3C=C[C@@H]4[C@@H](COC)C(=O)O[C@H]([C@H](O)COC)[C@H](C)/C=C(\C)[C@@]24O[C@H]3[C@@H]1OC(=O)c1cocn1 [Compound 8, 8-O-Oxazole-4′-carbonylbranimycin] | > 64 | > 64 | > 64 | > 64 | > 64 | > 64 | > 64 | > 64 | > 64 | – | > 64 | 64 (≈ 111 µM) | > 64 | – | > 64 | < 4.76 | 4.76 to 5.76 | – |
| COC[C@@H]1[C@@H](O)[C@@H]2[C@H]3C=C[C@@H]4[C@@H](COC)C(=O)O[C@H]([C@H](O)COC)[C@H](C)/C=C(\C)[C@@]24O[C@H]3[C@@H]1OC(=O)c1ccsc1 [Compound 9, 8-O-Thiophene-3′-carbonylbranimycin] | > 64 | > 64 | 4 (≈ 6.75 µM) | > 64 | 2 | 4 | 2 (≈ 3.37 µM) | > 64 | > 64 | – | > 64 | 4 (≈ 6.75 µM) | 4 (≈ 6.75 µM) | – | 2 (≈ 3.37 µM) | < 4.77 | 5.77 to 8.77 | – |
| COC[C@@H](O)[C@H]1OC(=O)[C@H](COC)[C@H]2C=C[C@H]3[C@H]4O[C@]2(/C(C)=C/[C@H]1C)[C@@H]3[C@H](O)[C@@H](C)[C@H]4OC(=O)c1cc(F)c[nH]1 [Compound 23, 8-O-4-Fluoro-1H-pyrrole-2′-carbonylbaleomycin] | > 64 | – | – | 64 (≈ 114 µM) | – | – | – | 64 (≈ 114 µM) | – | 5.75 to 8.75 | 64 (≈ 114 µM) | 0.12 (≈ 0.213 µM) | 4 (≈ 7.1 µM) | – | – | 4.75 to 5.75 | – | MIC ([2]; ATCC25922, read-out: MIC Ec1): > 64 µg/mL; MIC ([3]; ATCC13709, read-out: MIC Sa1): 1 µg/mL (≈ 1.77 µM); MIC ([5]; ATCC25923, read-out: MIC Sa26): 1 µg/mL (≈ 1.77 µM); MIC [5, 22]: 2 µg/mL; MIC [5, 23]: 4 µg/mL; MIC ([13]; NCTC6571, read-out: MIC Sa4): 1 µg/mL (≈ 1.77 µM) |
